pKi: −log10 of the molar value. Non-standard residues stand in square brackets, D forms with d. Residues, ends and D or L forms follow the SMILES beside them. *: point of attachment. X1 = O=C(C(F)(F)C(F)(F)C(F)(F)C(F)(F)C(F)(F)C(F)(F)C(F)(F)F)*; Adamantane1carbonyl = O=C(C12CC3CC(CC(C3)C1)C2)*; Benzoyl(4-Ph) = O=C(c1ccc(-c2ccccc2)cc1)*; Benzoyl(4-tBu) = CC(C)(C)c1ccc(C(=O)*)cc1; Butanoyl(3,3-Me2) = CC(C)(C)CC(=O)*; Stearoyl = CCCCCCCCCCCCCCCCCC(=O)*; X3 = O=C1NC2CSC(CCCCC(=O)*)C2N1; Nicotinoyl = O=C(c1cccnc1)*; Orn = NCCC[C@H](N)C(=O)O; Boc = CC(C)(C)OC(=O)*; Piv = CC(C)(C)C(=O)*; Bz = O=C(c1ccccc1)*

Among the data in ChEMBL document CHEMBL1127122, “Neurotensin receptor binding and antinociceptive activity for lipophilic N-amido neurotensin(913) analogs” (Bioorg Med Chem Lett, 1993) are ED50 and Ki values, retold here.

Experiment [1] deals with Mus musculus. The experiment can be described thus: Analgesic activity in fasted male mice in phenylquinone writhing assay 10 min after i.c.v. administration. Type of experiment: functional. On the technique in general: In writhing tests, fewer writhes than in controls are read as antinociception.
Experiment [2] has as its system Mus musculus. The experiment can be described thus: Analgesic activity in fasted male mice in phenylquinone writhing assay 40 min after i.c.v. administration. In kind it is functional.
For experiment [3], the system named is Mus musculus. As to the kind of experiment: Analgesic activity in fasted male mice in phenylquinone writhing assay 5 min after i.c.v. administration. In kind it is functional.
Experiment [4] relates to Mus musculus. The experiment can be described thus: Analgesic activity of i.v. administered compound in fasted male mice at 10 min. interval was determined using phenylquinone writhing assay. Type of experiment: functional. To be noted: iv.
The test system of experiment [5] is Mus musculus. The experiment can be described thus: Analgesic activity of i.v. administered compound in fasted male mice at 5 min. interval was determined using phenylquinone writhing assay. In kind it is functional. The conditions noted are these: iv.
Experiment [6] concerns the target Neurotensin receptor type 1 (Rattus norvegicus, UniProt P20789). As to the kind of experiment: Binding affinity against rat neurotensin receptor.

Neurotensin receptor type 1, sequence (P20789 whole entry): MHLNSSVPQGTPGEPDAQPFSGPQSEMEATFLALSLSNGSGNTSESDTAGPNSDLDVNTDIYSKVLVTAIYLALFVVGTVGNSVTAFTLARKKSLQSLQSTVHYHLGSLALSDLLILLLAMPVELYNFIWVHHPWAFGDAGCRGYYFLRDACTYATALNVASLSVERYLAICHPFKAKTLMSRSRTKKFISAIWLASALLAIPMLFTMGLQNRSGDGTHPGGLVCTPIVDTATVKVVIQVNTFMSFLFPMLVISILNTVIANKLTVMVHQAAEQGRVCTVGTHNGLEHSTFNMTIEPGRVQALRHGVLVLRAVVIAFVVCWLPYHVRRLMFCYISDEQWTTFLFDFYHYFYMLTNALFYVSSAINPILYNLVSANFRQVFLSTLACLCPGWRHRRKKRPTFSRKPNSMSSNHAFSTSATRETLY

In the case of `CC[C@H](C)[C@H](NC(=O)[C@H](Cc1ccc(O)cc1)NC(=O)[C@@H]1CCCN1C(=O)[C@H](CCCN)NC(=O)C12CC3CC(CC(C3)C1)C2)C(=O)N[C@@H](CC(C)C)C(=O)O` (Adamantane1carbonyl-[Orn]PYIL-OH) [listing 1 of 2 here], the ED50 was determined as 0.45 ug mouse-1 in the experiment on Mus musculus [1]; 3.6 ug mouse-1 in the experiment with Mus musculus [2]; 0.13 ug mouse-1 in the experiment with Mus musculus [3]; 11 mg/kg in the experiment with Mus musculus [4]; 4.8 mg/kg in the experiment on Mus musculus [5].
The corresponding values for `CC[C@H](C)[C@H](NC(=O)[C@H](Cc1ccc(O)cc1)NC(=O)[C@@H]1CCCN1C(=O)[C@H](CCCCN)NC(=O)CCCCC1SCC2NC(=O)NC21)C(=O)N[C@@H](CC(C)C)C(=O)O` (some centres undefined) (X3-KPYIL-OH) are 2 ug mouse-1, 8.3 ug mouse-1, 0.86 ug mouse-1, at least 81 mg/kg and over 81 mg/kg.
For `CC[C@H](C)[C@H](NC(=O)[C@H](Cc1ccc(O)cc1)NC(=O)[C@@H]1CCCN1C(=O)[C@H](CCCCN)NC(=O)c1ccc(-c2ccccc2)cc1)C(=O)N[C@@H](CC(C)C)C(=O)O` ({Benzoyl(4-Ph)}-KPYIL-OH), the ED50 was 2.8 ug mouse-1 in the experiment on Mus musculus [1]; 50 ug mouse-1 in the experiment on Mus musculus [2]; 1.7 ug mouse-1 in the experiment with Mus musculus [3]; 13 mg/kg in the experiment on Mus musculus [4]; under 27 mg/kg in the experiment on Mus musculus [5].
Turning to `CC[C@H](C)[C@H](NC(=O)[C@H](Cc1ccc(O)cc1)NC(=O)[C@@H]1CCCN1C(=O)[C@@H](N)CCCN)C(=O)N[C@@H](CC(C)C)C(=O)O` (H-[Orn]PYIL-OH), the values for the ED50 in the experiment with Mus musculus [1], in the experiment on Mus musculus [2] and with Mus musculus [3] were 20 ug mouse-1, 67 ug mouse-1 and 23 ug mouse-1, respectively.
`CC[C@H](C)[C@H](NC(=O)[C@H](Cc1ccc(O)cc1)NC(=O)[C@@H]1CCCN1C(=O)[C@H](CCCN)NC(=O)C12CC3CC(CC(C3)C1)C2)C(=O)N[C@@H](CC(C)C)C(=O)O` (Adamantane1carbonyl-[Orn]PYIL-OH) [listing 2 of 2 here]: the pKi – broadly, the Ki on a negative log10 scale, so that one unit is a factor of ten – in experiment [6] was 6.74.
As to `CC[C@H](C)[C@H](NC(=O)[C@H](Cc1ccc(O)cc1)NC(=O)[C@@H]1CCCN1C(=O)[C@H](CCCCN)NC(=O)c1cccnc1)C(=O)N[C@@H](CC(C)C)C(=O)O` (Nicotinoyl-KPYIL-OH), the ED50 with Mus musculus [1] came to 0.016 ug mouse-1; in the experiment on Mus musculus [2], 0.3 ug mouse-1; with Mus musculus [3], 0.0016 ug mouse-1; in the experiment on Mus musculus [4], 3 mg/kg; in the experiment on Mus musculus [5] it was 3.6 mg/kg.
In experiment [6], `CC[C@H](C)[C@H](NC(=O)[C@H](Cc1ccc(O)cc1)NC(=O)[C@@H]1CCCN1C(=O)[C@H](CCCCN)NC(=O)c1ccc(C(C)(C)C)cc1)C(=O)N[C@@H](CC(C)C)C(=O)O` ({Benzoyl(4-tBu)}-KPYIL-OH) [listing 1 of 2 here] showed a pKi of 6.66.
Regarding H-KPYIL-OH, the ED50 in the experiment on Mus musculus [1] was 10 ug mouse-1; in the experiment with Mus musculus [2], 26 ug mouse-1; in the experiment with Mus musculus [3] it was 8 ug mouse-1; in the experiment with Mus musculus [4] it was over 81 mg/kg; in the experiment with Mus musculus [5] it was over 81 mg/kg.
For `CC[C@H](C)[C@H](NC(=O)[C@H](Cc1ccc(O)cc1)NC(=O)[C@@H]1CCCN1C(=O)[C@H](CCCCN)NC(=O)c1ccc(C(C)(C)C)cc1)C(=O)N[C@@H](CC(C)C)C(=O)O` ({Benzoyl(4-tBu)}-KPYIL-OH) [listing 2 of 2 here], the ED50 with Mus musculus [1] is 0.088 ug mouse-1; in the experiment with Mus musculus [2], 0.32 ug mouse-1; in the experiment with Mus musculus [3], 0.075 ug mouse-1; in the experiment on Mus musculus [4], 6.6 mg/kg; in the experiment on Mus musculus [5], 12 mg/kg.
`CC[C@H](C)[C@H](NC(=O)[C@H](Cc1ccc(O)cc1)NC(=O)[C@@H]1CCCN1C(=O)[C@H](CCCCN)NC(=O)C(F)(F)C(F)(F)C(F)(F)C(F)(F)C(F)(F)C(F)(F)C(F)(F)F)C(=O)N[C@@H](CC(C)C)C(=O)O` (X1-KPYIL-OH) [listing 1 of 2 here] showed a negative logarithm of the Ki (pKi) in experiment [6] of 5.68.
As to `CC[C@H](C)[C@H](NC(=O)[C@H](Cc1ccc(O)cc1)NC(=O)[C@@H]1CCCN1C(=O)[C@H](CCCCN)NC(=O)C(C)(C)C)C(=O)N[C@@H](CC(C)C)C(=O)O` (Piv-KPYIL-OH) [listing 1 of 2 here], the pKi in experiment [6] is 6.72.
With `CC[C@H](C)[C@H](NC(=O)[C@H](Cc1ccc(O)cc1)NC(=O)[C@@H]1CCCN1C(=O)[C@H](CCCCN)NC(=O)C(F)(F)C(F)(F)C(F)(F)C(F)(F)C(F)(F)C(F)(F)C(F)(F)F)C(=O)N[C@@H](CC(C)C)C(=O)O` (X1-KPYIL-OH) [listing 2 of 2 here], the ED50 with Mus musculus [1] stood at 3.7 ug mouse-1; with Mus musculus [2], 4.4 ug mouse-1; with Mus musculus [3], 2.2 ug mouse-1; in the experiment with Mus musculus [4], 17 mg/kg; in the experiment on Mus musculus [5], 32 mg/kg.
The compound `CC[C@H](C)[C@H](NC(=O)[C@H](Cc1ccc(O)cc1)NC(=O)[C@@H]1CCCN1C(=O)[C@H](CCCCN)NC(=O)CC(C)(C)C)C(=O)N[C@@H](CC(C)C)C(=O)O` ({Butanoyl(3,3-Me2)}-KPYIL-OH) [listing 1 of 2 here] showed a pKi in experiment [6] of 6.17.
Regarding `CCCCCCCCCCCCCCCCCC(=O)N[C@@H](CCCCN)C(=O)N1CCC[C@H]1C(=O)N[C@@H](Cc1ccc(O)cc1)C(=O)N[C@H](C(=O)N[C@@H](CC(C)C)C(=O)O)[C@@H](C)CC` (Stearoyl-KPYIL-OH), the ED50 in the experiment on Mus musculus [1] was over 50 ug mouse-1; in the experiment with Mus musculus [2], over 50 ug mouse-1; with Mus musculus [3], 38 ug mouse-1.
With `CC[C@H](C)[C@H](NC(=O)[C@H](Cc1ccc(O)cc1)NC(=O)[C@@H]1CCCN1C(=O)[C@H](CCCCN)NC(=O)OC(C)(C)C)C(=O)N[C@@H](CC(C)C)C(=O)O` (Boc-KPYIL-OH), the ED50 in the experiment with Mus musculus [1] came out at 0.11 ug mouse-1; in the experiment on Mus musculus [2], 0.2 ug mouse-1; in the experiment on Mus musculus [3] it was 0.02 ug mouse-1; in the experiment on Mus musculus [4] it was 6.5 mg/kg; in the experiment on Mus musculus [5] it was 3.1 mg/kg.
With `CC[C@H](C)[C@H](NC(=O)[C@H](Cc1ccc(O)cc1)NC(=O)[C@@H]1CCCN1C(=O)[C@H](CCCN)NC(=O)OC(C)(C)C)C(=O)N[C@@H](CC(C)C)C(=O)O` (Boc-[Orn]PYIL-OH), the ED50 with Mus musculus [1] was 0.044 ug mouse-1; with Mus musculus [2], 0.69 ug mouse-1; with Mus musculus [3], 0.00084 ug mouse-1; in the experiment with Mus musculus [4], 2 mg/kg; in the experiment with Mus musculus [5], 0.85 mg/kg.
The corresponding values for `CC[C@H](C)[C@H](NC(=O)[C@H](Cc1ccc(O)cc1)NC(=O)[C@@H]1CCCN1C(=O)[C@H](CCCCN)NC(=O)C(C)(C)C)C(=O)N[C@@H](CC(C)C)C(=O)O` (Piv-KPYIL-OH) [listing 2 of 2 here] are 0.29 ug mouse-1, 0.7 ug mouse-1, 0.28 ug mouse-1, 15 mg/kg and 15 mg/kg.
Regarding `CC[C@H](C)[C@H](NC(=O)[C@H](Cc1ccc(O)cc1)NC(=O)[C@@H]1CCCN1C(=O)[C@H](CCCCN)NC(=O)CC(C)(C)C)C(=O)N[C@@H](CC(C)C)C(=O)O` ({Butanoyl(3,3-Me2)}-KPYIL-OH) [listing 2 of 2 here], the ED50 in the experiment on Mus musculus [1] worked out at 0.1 ug mouse-1; in the experiment with Mus musculus [2], 1.2 ug mouse-1; in the experiment on Mus musculus [3], 0.095 ug mouse-1; in the experiment with Mus musculus [4] it was 4.9 mg/kg; with Mus musculus [5], 6.2 mg/kg.
The corresponding values for `CC[C@H](C)[C@H](NC(=O)[C@H](Cc1ccc(O)cc1)NC(=O)[C@@H]1CCCN1C(=O)[C@H](CCCCN)NC(=O)c1ccccc1)C(=O)N[C@@H](CC(C)C)C(=O)O` (Bz-KPYIL-OH) are 0.16 ug mouse-1, 1.5 ug mouse-1, 0.0088 ug mouse-1, 5.5 mg/kg and 6.6 mg/kg.
For Ac-KPYIL-OH, the ED50 in the experiment with Mus musculus [1], in the experiment with Mus musculus [2] and in the experiment with Mus musculus [3] was under 50 ug mouse-1 each time.
